Measurements taken from patent publication US5501957A, “Method for measuring glycosyltransferase activity” (priority 1994, dated 1996).
“And” between values parts separate entries of the source, which are not always exact repeats. Equal values may be shown once. “Also recorded” adds a separate entry of the source. Read-outs that look alike come from different tables or passages of the source.

Columns and labels:
[1] = system: core 2 GlcNAc-T
[2] = system: β1-3Gal-T
[3] = system: CHO cells; assay: Proliferation (doubling time) of CHO cells in the presence of differentiation agents; assay type: cell-based, Chinese hamster
[4] = system: CHO cells; assay: Cell morphology of CHO cells; assay type: cell-based, Chinese hamster
[5] = system: core 2 GlcNAc-T; assay: Substrate Km for core 2 GlcNAc-T found in CHO and MDAY-D2 cell lysates; assay type: biochemical, Chinese hamster; murine
[6] = system: core 2 GlcNAc-T; settings: CHO and MDAY-D2 cell lysates; Yousefi et al (1991); cited from earlier work
[7] = target: T1, core 2 GlcNAc-T (Cricetulus griseus, UniProt A0A9J7GWB2); assay: Kinetic analysis of core 2 GlcNAc-T activity in CHO cell lysates; assay type: biochemical, Chinese hamster; settings: butyrate+cholera toxin-treated versus untreated CHO cells
T1 construct: The lysates were adjusted to 8-12 μg/μl protein with lysis solution and used as the source of transferases; endogenous in cells; host or cells: CHO cells (untreated or treated with differentiating agents), detergent lysate; in A6 freeze-thawed cells, pelleted membranes
T1 sequence (A0A9J7GWB2 1-428): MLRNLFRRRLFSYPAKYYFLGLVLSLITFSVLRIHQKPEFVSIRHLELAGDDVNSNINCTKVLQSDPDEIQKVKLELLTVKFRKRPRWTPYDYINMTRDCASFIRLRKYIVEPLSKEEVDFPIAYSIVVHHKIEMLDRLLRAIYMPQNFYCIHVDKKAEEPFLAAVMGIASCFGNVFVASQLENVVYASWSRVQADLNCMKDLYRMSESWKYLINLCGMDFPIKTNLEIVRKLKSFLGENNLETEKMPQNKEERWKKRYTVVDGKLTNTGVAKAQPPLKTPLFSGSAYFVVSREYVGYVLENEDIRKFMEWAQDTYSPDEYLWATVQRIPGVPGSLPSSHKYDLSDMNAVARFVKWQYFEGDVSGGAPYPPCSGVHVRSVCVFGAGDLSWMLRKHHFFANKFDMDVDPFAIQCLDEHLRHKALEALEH

[8] = system: bovine β1-4Gal-T; assay: Kinetics of the β1-4Gal-T reaction; assay type: biochemical; settings: 1 mU Gal-T, 5 min at 30° C.
[9] = system: Ca^++ -dependent protein kinases; settings: cell-free assays; Hidaka et al, 1984; cited from earlier work
[10] = system: cAMP-dependent protein kinases; settings: cell-free assays; Hidaka et al, 1984; cited from earlier work
[11] = 2 hour incubation, lysates from control or butyrate+cholera toxin-treated cells
[12] = system: core 2 GlcNAc-T; assay type: biochemical, Chinese hamster
[13] = in vitro; settings: hamster, cho cells
[14] = system: cAMP; assay type: cell-based, Chinese hamster
[15] = 1 μM actinomycin D, 5 μg/ml cycloheximide, 50 μM kinase inhibitors

In the case of Nc1ncnc2c1nc(Br)n2[C@@H]1O[C@@H]2COP(=O)(O)O[C@H]2[C@H]1O [8-bromo-cAMP], the “effect on core 2 GlcNAc-T activity in CHO cells (in words)” value (from here on “effect … in CHO cells (in words)”) [1] is reported as “failed to induce enzyme activity”.

For C[S+](C)[O-] [DMSO, dimethylsulfoxide], the “B-1 Gal-T activity” value ([2]; 24 h treatment) was 9.1 nmoles/m/h, the “B-1 Gal-T activity” value ([2]; 48 h treatment) was 8.1 nmoles/m/h and the “B-1 Gal-T activity” value ([2]; 72 h treatment) was 5.6 nmoles/m/h. The “Core 2 GlcNAc-T activity” value ([1]; 24 h treatment) was 9.6 pmol/mg/h, the “Core 2 GlcNAc-T activity” value ([1]; 48 h treatment) was 11.2 pmol/mg/h and the “Core 2 GlcNAc-T activity” value ([1]; 72 h treatment) was 9.5 pmol/mg/h. The “Doubling Time” value [3] was 25 to 27 h, the “effect on cell proliferation (in words)” value [3] was “reductions in cell growth rates” and the “Doubling Time” value ([3]; average slopes of growth curves over 72 hours) was 25 h. The “effect on cell proliferation (in words)” value ([3]; listed as dimethylsulfoxide) was “slowed cell proliferation”, the “changes in cell morphology (in words)” value [4] was “changes in cell morphology” and the “changes in cell morphology (in words)” value ([4]; listed as dimethylsulfoxide) was “induced changes in cell morphology”.

In the case of CC(=O)N[C@H]1[C@@H](Oc2ccc([N+](=O)[O-])cc2)O[C@H](CO)[C@H](O)[C@@H]1O[C@@H]1O[C@H](CO)[C@H](O)[C@H](O)[C@H]1O [Galβ1-3GalNAcα-pNp], the “fold by which substrate Km for β1-4Gal-T is lower than for core 2 GlcNAc-T” value [5] is given as 5 fold, the Km [6] is given as 300 µM and the “change in Km for the synthetic acceptor (in words)” value [7] is given as “no changes in Km”.

COC(=O)CCCCCCCCO[C@@H]1O[C@H](CO[C@H]2O[C@H](CO)[C@@H](O)[C@H](O)[C@@H]2O[C@@H]2O[C@H](CO)[C@@H](O)[C@H](O)[C@H]2NC(C)=O)[C@@H](O)[C@H](O)[C@@H]1O [GlcNAcβ1-2Manα1-6Manβ--O--(CH2)8 --COOCH3] showed a Km [8] of 45 µM.

In the case of CC1CNCCN1S(=O)(=O)c1cccc2cnccc12 (centres unmarked) [H-7], the “effect on induction of core 2 GlcNAc-T activity by butyrate (in words)” value (“effect on induction” below) [1, 15] is given as “blocked induction of core 2 GlcNAc-T activity” and the IC50 [9] is given as 1 to 10 µM.

For CNCCNS(=O)(=O)c1cccc2cnccc12 [H-8], the IC50 [10] is given as 1 to 10 µM and the “effect on induction” value [1, 15] is given as “blocked induction of core 2 GlcNAc-T activity”.

With NC(N)=NCCNS(=O)(=O)c1cccc2cnccc12 [H-1004] the “effect on induction” value [1] was “had no effect”.

For CC1=C(/C=C/C(C)=C/C=C/C(C)=C/C(=O)O)C(C)(C)CCC1 [RA, all-trans-retinoic acid], the “effect … in CHO cells (in words)” value [1] was “had no effect on activity”, the “effect … in CHO cells (in words)” value ([1]; listed as retinoic acid) was “Neither cholera toxin alone, retinoic acid, DMSO nor PMA had any effect on core 2 GlcNAc-T activity” and the “Doubling Time” value [3] was 13 h.

For CCCCCCCCCCCCCC(=O)O[C@@H]1[C@@H](C)[C@@]2(O)[C@@H](C=C(CO)C[C@]3(O)C(=O)C(C)=C[C@@H]23)[C@@H]2C(C)(C)[C@]12OC(C)=O [TPA, phorbol 12-myristate 13-acetate], the “effect … in CHO cells (in words)” value ([1]; listed as PMA) was “Neither cholera toxin alone, retinoic acid, DMSO nor PMA had any effect on core 2 GlcNAc-T activity” and the “Doubling Time” value [3] was 13 h.

For CC(=O)N[C@H]1[C@@H](OP(=O)(O)OP(=O)(O)OC[C@H]2O[C@@H](n3ccc(=O)[nH]c3=O)[C@H](O)[C@@H]2O)O[C@H](CO)[C@@H](O)[C@@H]1O [UDP-GlcNAc], the “fold by which substrate Km for β1-4Gal-T is lower than for core 2 GlcNAc-T” value [5] is listed as 7 fold, the Km [6] is listed as 500 µM and the UDP-GlcNAc remaining intact [11] is listed as 93-95%.

With CCCC(=O)[O-].[Na+] [butyrate, sodium butyrate] the “increase in β1-3 Gal-T activity” value ([2]; cho cells, 24 h, 2000 µM) was “approximately 2 fold”, the “increase in β1-3Gal-T activity” value ([2]; cho cells, 24 h, 2000 µM) was 2-3 times and the “core 2 GlcNAc-T activity, kinase +” value [12] was 264.9. The “core 2 GlcNAc-T activity, kinase -” value [12] was 267.4, the “effect … in CHO cells (in words)” value [1] was “only butyrate induced core 2 GlcNAc-T activity” and the “second peak of core 2 GlcNAc-T activity, higher than the 24 hours peak” value [1] was “approximately 45%”. For the same molecule, the “time of first peak (maximum) of core 2 GlcNAc-T activity” value [1] was 24 h, the “time of second peak of core 2 GlcNAc-T activity” value [1] was 84 h and the “core 2 GlcNAc-T activity greater than controls” value ([1]; cho cells, 2000 µM) was 10-20 times. The “fold increase in core 2 GlcNAc-T activity” value ([1]; cho cells, 24 h) was 16 fold, the “Doubling Time” value [3] was 25 to 27 h and 24 h and the “effect on cell proliferation (in words)” value [3] was “reductions in cell growth rates; also recorded: slowed cell proliferation”. The “changes in cell morphology (in words)” value [4] was “induced changes in cell morphology”, the viability at 2000 µM [13] was 90 to 95% and the “delay of core 2 GlcNAc-T peaks after peaks in cytosolic cAMP” value [14] was 8 to 12 h. The “effect on intracellular/cytosolic cAMP levels (in words)” value [14] was “butyrate treatment increases intracellular cAMP levels; also recorded: elevated cytosolic cAMP levels”, the “time by which cAMP elevation preceded induction of core 2 GlcNAc-T activity” value [14] was “approximately 8 h” and the “time of first peak of cAMP” value [14] was 12 h. The “time of second peak of cAMP” value [14] was 72 h.

In the case of CCCC(=O)Nc1ncnc2c1ncn2[C@@H]1O[C@@H]2COP(=O)(O)O[C@H]2[C@H]1OC(=O)CCC [dibutyryl cAMP], the “effect … in CHO cells (in words)” value [1] is reported as “failed to induce enzyme activity”.

For cholera toxin, the “additional increase in core 2 GlcNAc-T activity in butyrate-treated cells” value [1] was 2 fold, the “effect on core 2 GlcNAc-T activity of butyrate-treated cells (in words)” value [1] was “enhanced both cytosolic cAMP concentrations and core 2 GlcNAc-T activity compared to butyrate-treatment alone” and the “enhancement of core 2 GlcNAc-T activity in butyrate-treated cells” value [1] was 80%. The “effect on cell proliferation (in words)” value [3] was “reductions in cell growth rates; also recorded: slowed cell proliferation”, the “changes in cell morphology (in words)” value [4] was “induced changes in cell morphology” and the “effect on intracellular/cytosolic cAMP levels (in words)” value [14] was “enhanced both cytosolic cAMP concentrations and core 2 GlcNAc-T activity compared to butyrate-treatment alone”.
